The source of these data is US20220235006A1, “PYRIDINE DERIVATIVES AS TMEM16A MODULATORS FOR USE IN THE TREATMENT OF RESPIRATORY CONDITIONS” (TMEM16A LIMITED, priority 2019, published 2022).

A short description of series [1]: Log D (pH7.4 shake flask). The series is classed as physicochemical. As to conditions: pH 7.4; 1-octanol/phosphate buffer shake flask; read-out: mLogD (pH 7.4).
Series [2] is described as follows: Parallel artificial membrane permeability assay (PAMPA). Format: in vitro ADME. As to conditions: 200 μM, 16 hours. Here is the method: Parallel artificial membrane permeability assay (PAMPA) permeability data is a useful tool to predict passive permeability through biological lipid membranes. […] Passive permeability (>0.1 and <10×10^−6 cm/s) may still give good absorption properties.
All Test compounds were formulated in DMSO to 20 mM. Final concentration of all compounds in the assay was 200 μM with final DMSO concentration of 1%. The following reference controls were used: Antipyrine, Carbamazepine, Propranolol, Ranitidine and Ketoprofen.
The solutions were filtered and 150 μL transferred to a High Sensitivity 96 well UV plate. This was analysed by UV as the reference plate. A 200 μL sample of the 200 μM solution was transferred to the ‘donor’ plate of the PAMPA plon sandwich plate system. […] Donor and acceptor plates were sandwiched and kept in a humid environment at room temperature for 16 hours. On completion of the incubation the donor and acceptor plates were separated. 150 μL of solution was transferred from each of the donor and acceptor PAMPA sandwich plates into High Sensitivity 96 well UV plates for analysis by UV. Passive permeability (Pe 10^−6 cm/second) was determined for each compound tested. Control compounds were compared with historic and literature values to ensure assay functionality.

A further series can be described thus: Microsomal stability. The series is classed as in vitro ADME. As to conditions: human microsomes 0.5 mg/mL; 1 μM; 1 mM NADPH. Here is the method: Microsomes (human) were obtained from Bioreclamation.
All Test and reference control compounds (raloxifene, diclofenac, terfenadine, propranolol, dextromethorphan and metoprolol) were dissolved to create a 100 μM stock (final concentrations; 91.5% Acetonitrile: 8.5% DMSO). Final test compound concentration in incubation was 1 μM (<0.1% DMSO).
Solution 1: 17.4 g potassium phosphate dibasic anhydrous (K2HPO4, 0.1 M) dissolved in 1 L deionised water. Solution 2: 13.6 g potassium phosphate monobasic anhydrous (KH2PO4, 0.1 M) dissolved in 1 L deionised water. pH7.4 with 2 mM magnesium chloride. NADPH (10 mM) is prepared in deionised water.
Microsomes (all species) were removed from the −80° C. thawed at 37° C. Microsomes were diluted in assay buffer to achieve a final protein concentration of 0.5 mg/mL and 1 mM NADPH.
The following procedure was completed on a Perkin Elmer Janus robotic platform in 96 well format: The microsomal incubation plate was transferred to a heater shaker at 300 rpm and solution heated to 37° C. for 10 min pre-warm. A no co-factor control at 0 and 45 min and one replicates of each test compound was included in every assay. Microsomes were incubated at 37° C., on a shaker set at 300 rpm throughout the assay. […] Samples were diluted 1:1 with water using the Janus Robot and analysed by […]

In series [3] the test system is Cryopreserved hepatocytes (human). As to the kind of experiment: Hepatic stability (cryopreserved hepatocytes). Format: in vitro ADME. As to conditions: 1 μM.
Description: Cryopreserved hepatocytes (human) were obtained from Bioreclamation.
Test compounds and reference controls (raloxifene, diclofenac, terenadine, propranolol, dextromethorphan and metoprolol) were dissolved in a 100 μM stock was prepared by diluting 5 μL of 4 mM (DMSO) in 195 μL of 50:50 DMSO:hepatocyte buffer. Final test compound concentration in incubation was 1 μM.
The hepatocyte buffer was prepared (Williams E media containing phenol red and Glutamax™, 15 mM HEPES, warmed to 37° C., pH7.4 with NaOH). Hepatocyte cells (all main species) were removed from liquid nitrogen, thawed in a waterbath, decanted into 50 mL of pre-warmed Cryopreserved Hepatocyte Recovery Media (LifeTechnologies) and centrifuged. Supernatant fraction was removed, cells were re-suspended in hepatocyte buffer and counted by trypan blue exclusion. Cell viability of >80% was required for all assays.
2 μL of 100 μM compound stock solution was added to relevant wells to initiate the incubation. A no cell control and two replicates of each test compound was included in every assay. Cells were incubated at 37° C., on a shaker set at 300 rpm. […] Samples were diluted 1:1 with water using the Janus Robot and analysed by LC-MS/MS.
A short description of series [4]: Caco-2 permeability assay. Format: in vitro ADME. As to conditions: human, Caco-2, pH 7.4; for efflux ratio at 2 h, 10 μM: B-A/A-B; for Papp B→A at 2 h, 10 μM: basolateral to apical, pH7.4. Here is the method: Caco2 permeability data provides a measure of a compound's permeability, and its potential for efflux by P-glycoprotein. […] This assay therefore provides an indication of which compounds are likely to be suitable for oral administration.
Caco-2 cells were purchased from ATCC and passaged to create a bank of cells. Cells were not used post 20 passages.
All test and reference compounds (metoprolol (passive permeability) and atenolol (pgp substrate)) were formulated in DMSO to 20 mM.
96-well plates were seeded with 9×10^3 Caco-2 cells/well in DMEM, 10% FBS, 1% NEAA, 1% pen/strep and maintained at 37° C., in a highly humidified atmosphere of 95% air and 5% CO2. Plates were ready for use on day 21.
10 mM DMSO stock test compounds were diluted to 1 mM in DMSO. Two replicates of each test compound were included in every assay. Final concentration of donor solution was 10 μM.
Assay transport buffer (25 mM HEPES/Hanks Balanced Salt Solution (HBSS), pH7.4) was prepared to wash the cells, create lucifer yellow (LY) stock solutions, receiver solutions and blanks for the transport assay. Final concentration of LY was 10 μM. Basolateral wells were treated with 250 μL of 10 μM dosing drug solution or 250 μL Transport Buffer. Apical wells were treated with 75 μL drug dosing solution or 75 μL Transport Buffer. The two plates were sandwiched together and cells were incubated with test compounds for 2 hours, shaking at 50 rpm, 37° C., 0% CO2.
A calibration curve was prepared for each compound; DMSO stock solutions were serially diluted from 300 μM to 100 μM, 30 μM, 10 μM, 3 μM, 1 μM and 0.3 μM in DMSO. 2 μL of each concentration was diluted into 198 μL of Sample Quench Solution (50% acetonitrile containing 500 nM tolbutamide). 50 μL of each calibration solution was then diluted in 50 μL Dosing Buffer (modified HBSS containing LY). Finally this plate was diluted 1:10 using a Janus robot in Robot Dilution Quench Solution (35% acetonitrile containing 250 nM tolbutamide).
Following a 2 h incubation, 50 μL of sample was removed from each well (apical and basolateral) and added to the T2 sample plate. Lucifer Yellow fluorescence was analysed using Spectrafluor Plus featuring the XFluor software to determine membrane integrity.
Following the fluorescence plate read, 50 μL Sample Quench Solution was then added to the T2 sample plate. Plates were diluted 1:10 and/or 1:100 into opaque 384-well plates using a Janus Robot. 1:100 dilution transfers were created sequentially directly from 1:10 dilutions. All dilutions were created using Robot Dilution Quench Solution (35% acetonitrile containing 250 nM tolbutamide). All samples were analysed by LC-MS/MS.

In the case of `CC(C)(C#N)NC(=O)c1cc(NC(=O)Cc2ccc(C(C)(C)C)c(O)c2)ccn1` [93.4 of PCT/GB2019/050209, reference compound], the logD in series [1] was > 4.1. Further, in series [2] (pH 5.0), the “PAMPA Pe (pH 5.0)” value is recorded as 30.9 ×10^−4 cm/s. Moreover, in series [2] (pH 6.2), the “PAMPA Pe (pH 6.2)” value is listed as 38.4 ×10^−4 cm/s. Also, the “PAMPA Pe (pH 7.4)” value in series [2] (pH 7.4) is given as 36.4 ×10^−4 cm/s. The “Human Microsome CIint” value in “Microsomal stability” was 32.8 µL/min/mg. Further, the “Human Hepatocyte CIint” value in series [3] is given as 24.1 μL/min/million cells.

Consider `O=C(Cc1cc(O)c(C2(CO)CCC2)cc1F)Nc1ccnc(C(=O)NC2(C(F)(F)F)CC2)c1` [Example 2.13, 4-[[2-[2-Fluoro-5-hydroxy-4-[1-(hydroxymethyl)cyclobutyl]phenyl]acetyl]amino]-N-[1-(trifluoromethyl)cyclopropyl]pyridine-2-carboxamide], for which the logD in series [1] turned out to be 3.3. In series [4], the efflux ratio at 2 h, 10 μM came to 2.6 and the Papp B→A at 2 h, 10 μM worked out at 6.1 ×10⁻⁶ cm/s.

For `CC(C)(CO)c1cc(Cl)c(CC(=O)Nc2ccnc(C(=O)NC3(C(F)F)CC3)c2)cc1O` [Example 15.3, 4-[[2-[2-Chloro-5-hydroxy-4-(2-hydroxy-1,1-dimethyl-ethyl)phenyl]acetyl]amino]-N-[1-(difluoromethyl)cyclopropyl]pyridine-2-carboxamide], in series [1], the logD turned out to be 3.4. Moreover, in series [4], the efflux ratio at 2 h, 10 μM amounted to 19.8 and the basolateral-to-apical permeability (Papp B→A) at 2 h, 10 μM was 7.2 ×10⁻⁶ cm/s.

For `CC(C)(CO)c1cc(F)c(CC(=O)Nc2ccnc(C(=O)NC3(C(F)(F)F)CC3)c2)cc1O` [Example 2.6, 4-[[2-[2-Fluoro-5-hydroxy-4-(2-hydroxy-1,1-dimethyl-ethyl)phenyl]acetyl]amino]-N-[1-(trifluoromethyl)cyclopropyl]pyridine-2-carboxamide], the logD in series [1] worked out at 3.2. In addition, in series [4], the efflux ratio at 2 h, 10 μM came to 2.4 and the apparent permeability from basolateral to apical (Papp B→A) at 2 h, 10 μM amounted to 5.3 ×10⁻⁶ cm/s.

Consider `CCC(C)(O)c1cc(F)c(CC(=O)Nc2ccnc(C(=O)NC3(C(F)(F)F)CC3)c2)cc1O` (centres unmarked) [Example 2.11, 4-[[2-[2-Fluoro-5-hydroxy-4-(1-hydroxy-1-methyl-propyl)phenyl]acetyl]amino]-N-[1-(trifluoromethyl)cyclopropyl]pyridine-2-carboxamide], for which the logD in series [1] came out at 3.6. Also, the efflux ratio at 2 h, 10 μM in series [4] was found to be 1.

Take `CC(C#N)NC(=O)c1cc(NC(=O)Cc2cc(O)c(C(C)(C)C)cc2F)ccn1` (centres unmarked) [Example 1.3]: the logD in series [1] is 3.9. Moreover, in series [4], the efflux ratio at 2 h, 10 μM was 0.9 and the basolateral-to-apical permeability (Papp B→A) at 2 h, 10 μM is 2.5 ×10⁻⁶ cm/s.

Take `CC(C)(C)NC(=O)c1cc(NC(=O)Cc2cc(O)c(C(C)(C)C)cc2F)ccn1` [91 of PCT/GB2019/050209, reference compound]: the logD in series [1] was > 4.5. In addition, the “Human Microsome CIint” value in the series “Microsomal stability” was 51.0 µL/min/mg. Also, the “Human Hepatocyte CIint” value in series [3] stood at 15.6 μL/min/million cells.

`CC(C)(CCO)c1cc(F)c(CC(=O)Nc2ccnc(C(=O)NC3(C(F)(F)F)CC3)c2)cc1O` [Example 11, 4-[[2-[2-Fluoro-5-hydroxy-4-(3-hydroxy-1,1-dimethyl-propyl)phenyl]acetyl]amino]-N-[1-(trifluoromethyl)cyclopropyl]pyridine-2-carboxamide]: the logD in series [1] was determined as 3.7. In series [4], the efflux ratio at 2 h, 10 μM is 2.3 and the basolateral-to-apical permeability (Papp B→A) at 2 h, 10 μM stood at 5.5 ×10⁻⁶ cm/s.

For `Cc1cc(C(C)(C)CO)c(O)cc1CC(=O)Nc1ccnc(C(=O)NC2(C(F)(F)F)CC2)c1` [Example 14.1, 4-[[2-[5-Hydroxy-4-(2-hydroxy-1,1-dimethyl-ethyl)-2-methyl-phenyl]acetyl]amino]-N-[1-(trifluoromethyl)cyclopropyl]pyridine-2-carboxamide], the logD in series [1] stood at 3.4. Besides, in series [4], the efflux ratio at 2 h, 10 μM turned out to be 2.8 and the Papp B→A at 2 h, 10 μM came out at 6 ×10⁻⁶ cm/s.

With `O=C(Cc1cc(O)c(C(CO)C(F)(F)F)cc1F)Nc1ccnc(C(=O)NC2(C(F)(F)F)CC2)c1` (centres unmarked) [Example 17, 4-[[2-[2-Fluoro-5-hydroxy-4-[2,2,2-trifluoro-1-(hydroxymethyl)ethyl]phenyl]acetyl]amino]N-[1-(trifluoromethyl)cyclopropyl]pyridine-2-carboxamide], in series [1], the logD was 3.3. In addition, in series [4], the efflux ratio at 2 h, 10 μM came out at 20.7 and the Papp B→A at 2 h, 10 μM worked out at 7.8 ×10⁻⁶ cm/s.

For `CC(C)(O)c1cc(F)c(CC(=O)Nc2ccnc(C(=O)NC3(C(F)(F)F)CC3)c2)cc1O` [Example 2, 4-[[2-[2-Fluoro-5-hydroxy-4-(1-hydroxy-1-methyl-ethyl)phenyl]acetyl]amino]-N-[1-(trifluoromethyl)cyclopropyl]pyridine-2-carboxamide], the logD in series [1] amounted to 3.1. In series [4], the efflux ratio at 2 h, 10 μM was 1.8 and the Papp B→A at 2 h, 10 μM is 5.7 ×10⁻⁶ cm/s.

Regarding `CC(C)(CO)c1cc(Cl)c(CC(=O)Nc2ccnc(C(=O)NC3(C(F)(F)F)CC3)c2)cc1O` [Example 14, 4-[[2-[2-Chloro-5-hydroxy-4-(2-hydroxy-1,1-dimethyl-ethyl)phenyl]acetyl]amino]-N-[1-(trifluoromethyl)cyclopropyl]pyridine-2-carboxamide], the logD in series [1] is 3.9. For the same molecule, in series [4], the efflux ratio at 2 h, 10 μM was 2.8 and the apparent permeability from basolateral to apical (Papp B→A) at 2 h, 10 μM stood at 4.9 ×10⁻⁶ cm/s.
